Experiment in all cases: NCI anticancer screen, dose series, 48 h
The subject of test [1] is SNB-75 CNS.
The subject of test [2] is SK-MEL-5 melanoma.
Test [3] concerns MDA-MB-435.
The test system of test [4] is NCI-H23 lung.
The subject of test [5] is HCC-2998 colon.
The subject of test [6] is SK-MEL-2 melanoma.
Test [7] concerns SF-539 CNS.
The test system of test [8] is UO-31 renal.
Test [9] concerns RPMI-8226 leukemia.
In test [10] the test system is OVCAR-5 ovarian.

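Growth conditions: 96-well plates. Treatment: test compound, 48 hours, 5 concentrations. Analysis: linear interpolation between bracketing concentrations; unreached endpoints set to highest concentration. The concentration for 50% growth inhibition is given as GI50. The concentration for full growth arrest is given as TGI.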

For `O=C(CN(/C=C/C(=O)C(F)(F)F)c1ccc(Cl)cc1)c1ccccc1`, the GI50 in test [1] was 12.9 µM; in test [2], 12.1 µM; in [3], 10.8 µM; in test [4], 8.75 µM; in [5] it was 7.93 µM; in test [6], 15.5 µM. The GI50 was 13.1 µM in [7], 13.5 µM in test [8], 12.9 µM in test [9] and 15.6 µM in [10]. Besides, the TGI was 41.1 µM in [1]; 27.7 µM in test [2]; 39 µM in [3]; 27.2 µM in test [4]; 21.1 µM in test [5]; 35.6 µM in test [6]. Besides, the TGI in test [7] stood at 27.8 µM; in test [8] it was 29.9 µM; in [9] it was 89.3 µM; in test [10], 40.7 µM.
With `COC(=O)[C@]12CC[C@@H](C)[C@H](C)[C@@H]1C1=CC[C@@H]3[C@@]4(C)C(C=O)=C[C@@](C)(COC(C)=O)C4=CC[C@@]3(C)[C@]1(C)CC2`, the GI50 was 2.91 µM in test [1]; 10.5 µM in test [2]; 4.28 µM in [3]; 4.53 µM in test [4]; 3.32 µM in test [5]; 4.71 µM in test [6]. In addition, the GI50 in test [7] was 10.5 µM; in [8] it was 3.61 µM; in test [9], 2 µM; in [10], 5.75 µM. Further, the TGI in test [1] amounted to 19.2 µM; in [2] it was 22.6 µM; in test [3], 16.4 µM; in test [4], 19.3 µM; in test [5], 12.4 µM; in test [6], 16.1 µM. The TGI stood at 26 µM in test [7], 16 µM in [8], 5.7 µM in test [9] and 21.7 µM in [10].
Take `Cc1cc(O)ccc1C1=NN(c2ccc(S(C)(=O)=O)cc2)C(=O)CC1`: the GI50 in test [1] is 5.53 µM; in test [2] it was 5.49 µM; in [3], 1.28 µM; in test [4], 38.5 µM; in [5], 46.7 µM; in [6] it was 3.48 µM. Besides, the GI50 in test [7] was 13.2 µM; in test [8], 14.8 µM; in test [9] it was 25.6 µM; in [10] it was 53.8 µM. Besides, the TGI in test [1] was 75.2 µM; in test [2], above 100 µM; in test [3] it was 5.83 µM; in test [4] it was above 100 µM; in [5], above 100 µM; in test [6] it was 32.8 µM. The TGI in [7], in test [8], in test [9] and in test [10] was above 100 µM each time.
For `COc1ccc(C(=O)COC(=O)[C@H](C[Se][Se]C[C@H](NC(=O)c2ccc(Br)cc2F)C(=O)OCC(=O)c2ccc(OC)cc2)NC(=O)c2ccc(Br)cc2F)cc1`, the GI50 was 0.347 µM in [1]; 0.596 µM in test [2]; 1.51 µM in [3]; 0.412 µM in [4]; 0.617 µM in test [5]; 0.862 µM in test [6]. Besides, the GI50 is 0.321 µM in test [7], 0.579 µM in [8], 0.502 µM in [9] and 0.816 µM in test [10]. In addition, the TGI is 1.26 µM in test [1]; 2.76 µM in [2]; 5.05 µM in test [3]; 1.81 µM in test [4]; 1.85 µM in test [5]; 2.57 µM in [6]. Besides, the TGI worked out at 0.976 µM in test [7], 1.68 µM in test [8], 5.69 µM in test [9] and 2.54 µM in [10].
Consider `Cc1ccc(-c2cc3c(SCC(=O)Nc4cc(C(F)(F)F)ccc4Cl)nccn3n2)cc1`, for which the GI50 in test [1] was 23.5 µM; in [2], above 100 µM; in [3], above 100 µM; in [4] it was above 100 µM; in [5], above 100 µM; in test [6], above 100 µM. For the same compound, the GI50 is 8.5 µM in test [7], above 100 µM in test [8], above 100 µM in test [9] and above 100 µM in [10]. Further, the TGI in test [1], in test [2], in test [3], in test [4], in test [5] and in test [6] was above 100 µM in each case. Besides, the TGI in test [7], in test [8], in test [9] and in test [10] was above 100 µM in each case.
Regarding `O=[N+]([O-])c1ccccc1N/N=C\c1c[nH]c2ccccc12`, the GI50 in test [1] is 4.2 µM; in test [2] it was 71.4 µM; in test [3] it was above 100 µM; in test [4], 16.8 µM; in test [5], 10.9 µM; in test [6], 26.4 µM. Besides, the GI50 is 12.4 µM in test [7], 0.658 µM in test [8], 47.4 µM in [9] and above 58.2 µM in [10]. Also, the TGI in test [1] was 29.8 µM; in test [2], above 100 µM; in test [3], above 100 µM; in test [4] it was above 100 µM; in test [5] it was above 100 µM; in [6] it was above 100 µM. Besides, the TGI in test [7] is 31.2 µM; in test [8] it was above 65.9 µM; in test [9], above 100 µM; in test [10], above 100 µM.
Consider `C/C(=C\CCc1ccoc1)CC/C=C(\C)CCCN1CCOCC1`, for which the GI50 was 3.15 µM in [1]; 1.7 µM in test [2]; 3.48 µM in test [3]; 6.03 µM in test [4]; 10.9 µM in test [5]; 12.2 µM in test [6]. Besides, the GI50 in [7] is 5.49 µM; in [8], 10.3 µM; in test [9] it was 1.88 µM; in test [10], 7.17 µM. Moreover, the TGI in [1] was found to be 16.3 µM; in [2], 3.52 µM; in test [3], 13.7 µM; in test [4] it was 21 µM; in test [5] it was 23.8 µM; in test [6] it was 25.9 µM. The TGI in [7] turned out to be 19.7 µM; in [8], 24.6 µM; in test [9] it was 4.99 µM; in [10] it was 21.3 µM.
